Experimental data reported in ChEMBL document CHEMBL4152362, “Discovery of DS-6930, a potent selective PPARγ modulator. Part II: Lead optimization” (Bioorg Med Chem, 2018).
Values after ≈ are worked out from the molar mass of the structure shown. Values belong to the molecule of their own block, whether it stands above or below them. Active and inactive are the calls of the source. The rule behind the calls is not given here.

Columns and labels:
[1] = AUClast in cynomolgus monkey at 3 mg/kg, po by LC-MS/MS; format: ADME, organism-based, Macaca fascicularis; design: dose 3 mg/kg, time 0 - last, route oral; settings: in vivo
[2] = Tmax in cynomolgus monkey at 3 mg/kg, po by LC-MS/MS; format: ADME, organism-based, Macaca fascicularis; settings: in vivo
[3] = biological target: T1, Peroxisome proliferator-activated receptor alpha (Homo sapiens, UniProt Q07869); test: Agonist activity at recombinant human GAL4-DBD fused PPARalpha LBD expressed in COS7 cells after 24 hrs by luciferase reporter gene assay; format: cell-based
T1 sequence (Q07869 whole entry): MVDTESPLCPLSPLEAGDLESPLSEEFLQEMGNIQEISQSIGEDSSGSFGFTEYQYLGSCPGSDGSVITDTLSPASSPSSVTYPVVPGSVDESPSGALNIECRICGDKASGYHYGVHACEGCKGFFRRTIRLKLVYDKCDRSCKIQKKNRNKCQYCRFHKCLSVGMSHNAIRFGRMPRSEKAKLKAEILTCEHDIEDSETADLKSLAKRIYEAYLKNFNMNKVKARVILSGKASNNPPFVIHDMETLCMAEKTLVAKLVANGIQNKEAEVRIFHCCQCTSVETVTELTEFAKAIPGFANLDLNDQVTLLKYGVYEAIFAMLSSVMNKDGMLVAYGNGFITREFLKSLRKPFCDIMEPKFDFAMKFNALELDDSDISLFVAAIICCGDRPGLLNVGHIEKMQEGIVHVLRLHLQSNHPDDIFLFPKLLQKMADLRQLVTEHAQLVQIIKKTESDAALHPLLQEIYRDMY

[4] = Metabolic stability in human liver microsomes after 0.5 hrs; format: ADME, microsome; settings: read-out: Stability
[5] = Half life in cynomolgus monkey at 3 mg/kg, po by LC-MS/MS; format: ADME, organism-based, Macaca fascicularis; settings: in vivo
[6] = Cmax in cynomolgus monkey at 3 mg/kg, po by LC-MS/MS; format: ADME, organism-based, Macaca fascicularis; design: dose 3 mg/kg, route oral; settings: in vivo
[7] = Oral bioavailability in cynomolgus monkey at 3 mg/kg by LC-MS/MS; format: ADME, organism-based, Macaca fascicularis; settings: in vivo
Hepatocyte [8] = test: Cytotoxicity against F344/DuCrlCrlj rat primary hepatocytes assessed as reduction in cell viability at 10 to 100 uM after 24 hrs by LDH release assay; format: cell-based
[9] = Volume of distribution at steady state in cynomolgus monkey at 1 mg/kg, iv by LC-MS/MS; format: ADME, organism-based, Macaca fascicularis; settings: in vivo, read-out: Vdss
[10] = Aqueous thermodynamic solubility of the compound in pH 6.8 solution up to 4 hrs by HPLC-UV analysis; format: physicochemical; settings: read-out: Therm_solubility
Hepatocyte [11] = test: Cytotoxicity against F344/DuCrlCrlj rat primary hepatocytes assessed as reduction in mitochondrial enzyme activity at 10 to 100 uM after 24 hrs by WST8 assay; format: cell-based
[12] = Clearance in cynomolgus monkey at 1 mg/kg, iv by LC-MS/MS; format: ADME, organism-based, Macaca fascicularis; settings: in vivo
[13] = 1-octanol/PBS distribution co-efficient, log D of the compound at […] at pH 7.4 after 30 mins by HPLC-MS/MS method; format: physicochemical
Hepatocyte [14] = test: Cytotoxicity against F344/DuCrlCrlj rat primary hepatocytes assessed as reduction in cell viability at 100 uM after 24 hrs by LDH release assay; format: cell-based
[15] = Apparent permeability of the compound after 4 hrs by PAMPA; format: ADME
Rattus norvegicus [16] = test: Toxicity in F344/DuCrlCrlj rat assessed as reduction in RBC count at 50 mg/kg, po administered via gavage once daily for 28 days relative to control; format: organism-based; design: scale not given: the % may be the effect or the level left; settings: in vivo, 672 h
Rattus norvegicus [17] = test: Toxicity in F344/DuCrlCrlj rat assessed as effect on hematocrit at 50 mg/kg, po administered via gavage once daily for 28 days; format: organism-based; settings: in vivo, 672 h
Rattus norvegicus [18] = test: Toxicity in F344/DuCrlCrlj rat assessed as effect on ovary weight at 50 mg/kg, po administered via gavage once daily for 28 days; format: organism-based; settings: in vivo, 672 h
[19] = biological target: T2, Peroxisome proliferator-activated receptor gamma (Homo sapiens) (UniProt P37231); test: Agonist activity at recombinant human GAL4-TAD fused PPARgamma LBD assessed as induction of GAL4-DBD fused TRAP220 co-factor recruitment after 24 to 48 hrs by fluorescence assay
T2 sequence (whole entry): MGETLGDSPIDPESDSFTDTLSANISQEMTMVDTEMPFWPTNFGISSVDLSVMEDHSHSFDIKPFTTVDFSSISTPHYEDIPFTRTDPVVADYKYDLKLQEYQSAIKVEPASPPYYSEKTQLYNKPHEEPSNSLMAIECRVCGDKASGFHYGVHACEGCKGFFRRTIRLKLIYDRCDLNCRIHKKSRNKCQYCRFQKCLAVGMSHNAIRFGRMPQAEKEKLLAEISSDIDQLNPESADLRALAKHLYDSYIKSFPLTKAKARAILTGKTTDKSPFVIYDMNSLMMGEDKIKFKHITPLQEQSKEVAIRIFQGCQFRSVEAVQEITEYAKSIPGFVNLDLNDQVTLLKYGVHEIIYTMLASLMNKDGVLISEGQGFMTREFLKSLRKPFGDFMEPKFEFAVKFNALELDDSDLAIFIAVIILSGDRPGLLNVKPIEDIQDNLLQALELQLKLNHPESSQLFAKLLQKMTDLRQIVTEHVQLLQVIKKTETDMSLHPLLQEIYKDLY

Rattus norvegicus [20] = test: Toxicity in F344/DuCrlCrlj rat assessed as effect on kidney weight at 50 mg/kg, po administered via gavage once daily for 28 days; format: organism-based; settings: in vivo, 672 h
[21] = biological target: T2, Peroxisome proliferator-activated receptor gamma (Homo sapiens); test: Agonist activity at recombinant human GAL4-TAD fused PPARgamma LBD assessed as induction of GAL4-DBD fused RIP140e184b co-factor recruitment after 24 to 48 hrs by fluorescence assay
[22] = AUC (0 to 24 hrs) in Zucker diabetic fatty rat at 0.3 mg/kg, po administered once daily for 21 days followed by additional administration on day 22; format: ADME, organism-based; design: dose 0.3 mg/kg, time < 24 hr, route oral; settings: in vivo
[23] = biological target: T2, Peroxisome proliferator-activated receptor gamma (Homo sapiens); test: Agonist activity at recombinant human GAL4-TAD fused PPARgamma LBD assessed as induction of GAL4-DBD fused SRC1 co-factor recruitment after 24 to 48 hrs by fluorescence assay
Rattus norvegicus [24] = test: Toxicity in F344/DuCrlCrlj rat assessed as body weight gain at 50 mg/kg, po administered via gavage once daily for 28 days relative to control; format: organism-based; settings: in vivo, 672 h
Rattus norvegicus [25] = test: Toxicity in F344/DuCrlCrlj rat assessed as death at 50 mg/kg, po administered via gavage once daily for 28 days; format: organism-based; settings: in vivo, 672 h
Rattus norvegicus [26] = test: Toxicity in F344/DuCrlCrlj rat assessed as clinical abnormality at 50 mg/kg, po administered via gavage once daily for 28 days; format: organism-based; settings: in vivo, 672 h
in vivo = settings: F344/DuCrlCrlj, rat, po, 50 mg/kg
Description: Tmax in F344/DuCrlCrlj rat at 50 mg/kg, po via gavage measured on day 28 post dose

Rattus norvegicus [27] = test: Antidiabetic activity in Zucker diabetic fatty rat assessed as reduction in plasma glucose level administered orally once daily for 21 days measured on day 22; format: functional, organism-based
[28] = biological target: T2, Peroxisome proliferator-activated receptor gamma (Homo sapiens); test: Agonist activity at recombinant human GAL4-TAD fused PPARgamma LBD assessed as induction of GAL4-DBD fused CBP co-factor recruitment after 24 to 48 hrs by fluorescence assay
[29] = Tmax in Zucker diabetic fatty rat at 0.3 mg/kg, po administered once daily for 21 days followed by additional administration on day 22; format: ADME, organism-based; settings: in vivo
[30] = AUC (0 to 24 hrs) in F344/DuCrlCrlj rat at 50 mg/kg, po via gavage measured on day 28 post dose; format: ADME, organism-based; design: time < 24 hr, dose 50 mg/kg, route oral; settings: in vivo
Rattus norvegicus [31] = test: Antidiabetic activity in Zucker diabetic fatty rat assessed as reduction in plasma glucose level at 0.3 mg/kg, po administered once daily for 21 days measured on day 22 relative to control; format: functional; design: scale not given: the % may be the effect or the level left
Rattus norvegicus [32] = test: Toxicity in Zucker diabetic fatty rat assessed as body weight gain at 3 mg/kg, po administered once daily for 14 days relative to control; format: organism-based; settings: in vivo, 336 h
[33] = Cmax in Zucker diabetic fatty rat at 0.3 mg/kg, po administered once daily for 21 days followed by additional administration on day 22; format: ADME, organism-based; design: dose 0.3 mg/kg, route oral; settings: in vivo
[34] = Cmax in F344/DuCrlCrlj rat at 50 mg/kg, po via gavage measured on day 28 post dose; format: ADME, organism-based; design: dose 50 mg/kg, route oral; settings: in vivo
[35] = Drug uptake in F344/DuCrlCrlj rat plasma administered via oral gavage measured on day 28 post dose; format: ADME
[36] = biological target: T2, Peroxisome proliferator-activated receptor gamma (Homo sapiens); test: Agonist activity at recombinant human GAL4-TAD fused PPARgamma LBD assessed as induction of GAL4-DBD fused NCoA3 co-factor recruitment after 24 to 48 hrs by fluorescence assay
Rattus norvegicus [37] = test: Antidiabetic activity in Zucker diabetic fatty rat assessed as reduction in plasma glucose level at 3 mg/kg, po administered once daily for 14 days measured on day 15 relative to control; format: functional; design: scale not given: the % may be the effect or the level left
Rattus norvegicus [38] = test: Toxicity in F344/DuCrlCrlj rat assessed as increase in heart weight at 50 mg/kg, po administered via gavage once daily for 28 days; format: organism-based; settings: in vivo, 672 h

AUC(0-t) [1]: 1470 ng·h/mL | Tmax [2]: 4 h | EC50 [3]: > 10 µM | remaining at 0.5 h [4]: 100% | half-life [5]: 49.8 h | Cmax [6]: 100 ng/mL | bioavailability [7]: 8.9% | Vd [9]: 0.88 L/kg | solubility thermodynamic at 4 h [10]: 9.2 µg/mL (≈ 22.6 µM) | clearance [12]: 3.07 mL/min/kg | logD at 0.5 h [13]: 1.1 | Papp at 4 h [15]: 5.8 ×10⁻⁶ cm/s
SMILES: Cc1cnc(Oc2ccc3nc(COc4cccc(C(=O)O)c4)n(C)c3c2)c(F)c1
Activity (Hepatocyte [8]): Non-Toxic | Activity (Hepatocyte [11]): Non-Toxic | Activity (Hepatocyte [14]): Toxic

SMILES: CN(CCOc1ccc(CC2SC(=O)NC2=O)cc1)c1ccccn1 (centres undefined) [ROSIGLITAZONE]
Activity (Rattus norvegicus [16]): 13% | Activity (Rattus norvegicus [17]): Non-Toxic | Activity (Rattus norvegicus [18]): Toxic | Activity [19]: Active | Activity (Rattus norvegicus [20]): Toxic | Activity [21]: Active | AUC at 24 h [22]: 6550 ng·h/mL | Activity [23]: Active | Activity (Rattus norvegicus [24]): 10% | Activity (Rattus norvegicus [25]): Non-Toxic | Activity (Rattus norvegicus [26]): Non-Toxic | Tmax (in vivo): 1 h | Activity (Rattus norvegicus [27]): Dose-dependent effect | Activity [28]: Active | Tmax [29]: 1.6 h | AUC at 24 h [30]: 525000 ng·h/mL | Activity (Rattus norvegicus [31]): 50% | Activity (Rattus norvegicus [32]): 12.6% | Cmax [33]: 1040 ng/mL | Cmax [34]: 67600 ng/mL | Drug uptake [35]: Dose-dependent effect | Activity [36]: Active | Activity (Rattus norvegicus [37]): 40.3% | Activity (Rattus norvegicus [38]): 18%
